System: HL-60 cells
Assay: Induction of apoptosis, scored by phase contrast morphological criteria
Type: cell-based, human
Settings: HL-60, 100 μM hydrogen peroxide positive control, 0-72 hours
Description: FIG. 2. Time course of apoptosis in HL-60 cells induced by C-MED-100 extract (Example 1) as compared to negative (no treatment) or positive (100 μM H2O2 exposure) controls.
For the purpose of evaluating apoptosis in vitro, human leukemic HL-60 cells were cultured at a density of 0.5×10^6 cells per milliliter in 10% calf serum supplemented RPMI medium in a 5% CO2 atmosphere at 37° C. for 48 hours. The cells were harvested by centrifugation and resuspended in a fresh medium at a concentration of 1-2×10^6 cells per milliliter in 15 milliliter Falcon test tubes for bioassay purposes. Next the cells were exposed to either 100 μM hydrogen peroxide as a positive control or 397 μg per milliliter C-Med-100 extract prepared according to Example 1 or no exposure for 0-72 hours at 37° C. Samples of cells were taken from the cultures at the time periods indicated in FIG. 2 and the % apoptosis in the total cells counted were analyzed and scored by phase contrast morphological criteria.

OO [Hydrogen peroxide]
apoptotic cells over time: massive cell death by apoptosis within 24 hours
